{
  "source": "patent US20240082212A1",
  "about": "“USE OF MDMA FOR TREATMENT OF STRESS-RELATED DISORDERS” (priority 2022, published 2024)",
  "key": {"C57BL/6J mice": {"tested_on": "C57BL/6J mice", "experiment": "Head twitch response (HTR)", "format": "in vivo, mouse", "settings": "30 minutes after injection", "protocol": "Male C57BL/6J mice at 6-8 weeks of age were purchased from Jackson Laboratories and housed four per cage in a climate and humidity-controlled room in a vivarium at the University of California, San Diego. The room operated on a reverse light cycle (lights on at 1900 h, off at 0700 h) with food and water available ad libitum, except during testing. All testing was performed during 1000 h and 1800 h. After a minimum of 1 week acclimation to the housing facility, mice were anesthetized using a mixture of ketamine (100 mg/kg IP) and xylazine (10 mg/kg IP). Under deep anesthesia, an incision was made in the scalp and a small neodymium magnet (4.57 mm×4.57 mm×2.03 mm) was attached to the cranium using cyanoacrylate and dental cement. After at least a 2-week recovery period, the mouse was removed from the home cage and injected intraperitoneally with the test article or vehicle (0.9% sterile saline). Immediately, the mouse was placed in a glass cylinder surrounded by a magnetometer coil and the head twitch response (HTR) was assessed for 30 minutes (Halberstadt and Geyer, 2013). The output of the coil was recorded using a Powerlab/8SP with LabChart v.7.3.2 (ADInstruments). Coil voltage was amplified, low-pass filtered (2-10 kHz cut-off frequency) to remove interference, digitized and sampled at 20 kHz. Head twitches were identified using a validated technique based on artificial intelligence (Halberstadt, 2020). Events in the recordings were transformed into a visual representation in the time-frequency domain and deep features were extracted using the pretrained convolutional neural network ResNet-50, and the images were subsequently classified using a Support Vector Machine algorithm.\nTest articles (R,S-MDA, R(−)-MDA, S-(+)MDA), R,S-MDMA, R(−)-MDMA and S(+)-MDMA) were supplied by the NIDA Drug Supply Program as neat powders. Racemic MDA and MDMA and their enantiomers were dissolved in saline and injected IP at a volume of 5 mL/kg. Each dose was calculated based on the salt form of the compounds. For each treatment condition, six groups of mice (n=5-6/group) were treated with vehicle or the test drug (0.1, 0.3, 1, 3, or 10 mg/kg) and HTR assessed for 30 minutes immediately following injections. To avoid carryover effects, each treatment condition was performed at least seven days apart. Total number of mice used for the experiment was 63."}, "CD (Sprague Dawley) rats": {"tested_on": "CD (Sprague Dawley) rats", "experiment": "Rat functional observation battery (FOB) neurobehavioral evaluation after cumulative SC dosing", "format": "in vivo", "protocol": "The observations were assessed through a rat functional observation battery (FOB) and continuous physiological measurements on the day of cumulative dosing, which are provided in further detail below.\nMethods. A total of 42 adult male CD® (Sprague Dawley) rats (Charles River Laboratories) were surgically implanted with DSI radiotelemetry devices by personnel at Charles River Laboratories Raleigh, NC, per their test site SOPs. Telemetry devices supported continuous recording of temperature, activity, blood pressure and heart rate. Telemeterized rats were shipped to the Charles River Laboratories testing facility (Mattawan, MI) and acclimated to the environment for at least 1 week prior to experimentation. Animals were pair-housed in solid bottom cages with nonaromatic bedding. On the dosing day, animals were singly housed and then returned to the paired cohort following the dosing/telemetry recording phase. Diet (Lab Diet® Certified Rodent Diet #5CR4) and tap water via an automatic water system were available ad libitum, except during designated procedures. Temperature and humidity were maintained according to the Testing Facility SOP. Animals were randomized into treatment groups using a standard, by weight, measured value randomization procedure. Body weight was determined for each rat prior to dosing.\nAs illustrated in the Table, a total of 36 rats were included in the study. The vehicle and 2 test article doses were administered in a volume of 1 mL/kg to each of 3 groups of n=12 telemeterized rats via subcutaneous injection four times on a given day, followed by neurobehavioral evaluations. This series was repeated 3 times on study. Each group received all 3 dose levels of the applicable test or control article in ascending order with a 1-week washout between dose levels.\nMortality/cage side clinical observations were conducted for all study animals at least twice daily beginning upon receipt through termination, except on days of receipt and termination where frequency was at least once daily. Detailed clinical observations were conducted for all study animals prior to each of the four cumulative doses in a series. Individual body weights were conducted for all study animals at transfer, prior to randomization, on the day of dosing on each of the 3 cycles of dosing. The body weights recorded at transfer and prior to randomization are not reported but are maintained in the study file. Veterinary care was available throughout the course of the study, and animals were examined by the veterinary staff as needed based on clinical signs or other changes. All animals were provided with HydroGel the night prior to their respective dosing days to potentially mitigate any animal welfare issues related to fluid loss/dehydration.\nNeurobehavioral evaluations (blinded) were conducted for all study animals 1 hour following the last (4th) cumulative dose of the series. The neurobehavioral parameters evaluated included: activity measurements (arousal/alertness, posture/body carriage, stereotypy, rearing, and appearance), autonomic measurements (exophthalmus, lacrimation, erected fur, pupil response, salivation, defecation, and palpebral closure/ptosis), excitability measurements (vocalizations, startle response, ease of removal, handling reactivity, and convulsions), neuromuscular measurements (gait/mobility, grip strength/response, air righting reflex, tremor, and body tone), physiological measurements (respiration and body temperature), and sensorimotor measurements (touch response/tactile reflex and thermal response)."}, "[1]": {"settings": "1 h after last of 4 hourly SC injections, R-MDMA and racemic MDMA 10, 20 mg/kg/day, S-MDMA 5, 10 mg/kg/day"}, "[2]": {"settings": "1 h after last of 4 hourly SC injections, racemic MDMA 10, 20 mg/kg/day, S-MDMA 5, 10 mg/kg/day"}, "[3]": {"settings": "FOB, cumulative SC dosing, dose groups stated in the value"}},
  "note": "Entries after “also recorded” stand apart in the source; their conditions may differ.",
  "data": [
    {"smiles": "CNC(C)Cc1ccc2c(c1)OCO2", "note": "(single isomer, unassigned) [S-MDMA, S(+)-MDMA]", "values": [
      {"measurement": "head twitch response (HTR) compared to control (vehicle)", "setting": "C57BL/6J mice; 3 mg/kg IP", "value": "reduction of HTR"},
      {"measurement": "head twitch response (HTR) compared to control (vehicle)", "setting": "C57BL/6J mice; 10 mg/kg IP", "value": "reduction of HTR"},
      {"measurement": "arousal/alertness and rearing", "setting": "CD (Sprague Dawley) rats; [1]", "value": "general increase in overall levels of arousal/alertness and rearing"},
      {"measurement": "ease of removal from the home cage and handling reactivity (excitability)", "setting": "CD (Sprague Dawley) rats; [1]", "value": "Dose-dependent increased difficulty in removal from the home cage and increased handling reactivity"},
      {"measurement": "forelimb grip strength", "setting": "CD (Sprague Dawley) rats; [1]", "value": "dose-dependent statistically significant decreases in forelimb grip strength"},
      {"measurement": "salivation and erected fur (autonomic)", "setting": "CD (Sprague Dawley) rats; [1]", "value": "Dose-dependent increased salivation and erected fur"},
      {"measurement": "unkempt appearance", "setting": "CD (Sprague Dawley) rats; [1]", "value": "increased incidence of unkempt appearance in a dose-dependent manner"},
      {"measurement": "stereotypies (mouth movements/weaving, circling/retropulsion, sniffing)", "setting": "CD (Sprague Dawley) rats; 1 h after last of 4 hourly SC injections, highest doses: S-MDMA 10, racemic-MDMA 20 mg/kg/day, R-MDMA 10, 20 mg/kg/day", "value": "observed in animals treated with S-MDMA and racemic-MDMA only at the highest tested doses; also recorded: only one S-MDMA-treated animal was reported with stereotypical behaviors"},
      {"measurement": "general gait/mobility changes", "setting": "CD (Sprague Dawley) rats; [2]", "value": "General gait/mobility changes were only observed"},
      {"measurement": "respiration", "setting": "CD (Sprague Dawley) rats; [2]", "value": "Rapid respiration was noted"},
      {"measurement": "Rank Order Activity Measurement Effects", "setting": "CD (Sprague Dawley) rats; [3]", "value": "S-MDMA (5 mg/kg/day) < R-MDMA (10 mg/kg/day) < Rac.-MDMA (10 mg/kg/day); also recorded: Rac.-MDMA (20 mg/kg/day) < S-MDMA (10 mg/kg/day) < R-MDMA (20 mg/kg/day); also recorded: S-MDMA (0 mg/kg/day) < S-MDMA (5 mg/kg/day) < S-MDMA (10 mg/kg/day); also recorded: Rac.-MDMA (20 mg/kg/day) < S-MDMA (10 mg/kg/day) < R-MDMA (10 mg/kg/day)"},
      {"measurement": "Rank Order Autonomic Measurement Effects", "setting": "CD (Sprague Dawley) rats; [3]", "value": "R-MDMA (10 mg/kg/day) < S-MDMA (5 mg/kg/day) < Rac.-MDMA (10 mg/kg/day); also recorded: R-MDMA (20 mg/kg/day) < S-MDMA (10 mg/kg/day) < Rac-MDMA (20 mg/kg/day); also recorded: S-MDMA (0 mg/kg/day) < S-MDMA (5 mg/kg/day) < S-MDMA (10 mg/kg/day); also recorded: R-MDMA (10 mg/kg/day) < S-MDMA (10 mg/kg/day) = Rac-MDMA (20 mg/kg/day)"},
      {"measurement": "Rank Order Excitability Measurement Effects", "setting": "CD (Sprague Dawley) rats; [3]", "value": "R-MDMA (10 mg/kg/day) < S-MDMA (5 mg/kg/day) < Rac.-MDMA (10 mg/kg/day); also recorded: R-MDMA (20 mg/kg/day) = S-MDMA (10 mg/kg/day) < Rac-MDMA (20 mg/kg/day); also recorded: S-MDMA (0 mg/kg/day) < S-MDMA (5 mg/kg/day) < S-MDMA (10 mg/kg/day); also recorded: R-MDMA (10 mg/kg/day) < S-MDMA (10 mg/kg/day) < Rac-MDMA (20 mg/kg/day)"},
      {"measurement": "Rank Order Neuromuscular Measurement Effects", "setting": "CD (Sprague Dawley) rats; [3]", "value": "R-MDMA (10 mg/kg/day) < S-MDMA (5 mg/kg/day) < Rac.-MDMA (10 mg/kg/day); also recorded: R-MDMA (20 mg/kg/day) = S-MDMA (10 mg/kg/day) < Rac-MDMA (20 mg/kg/day); also recorded: S-MDMA (0 mg/kg/day) < S-MDMA (5 mg/kg/day) = S-MDMA (10 mg/kg/day); also recorded: R-MDMA (10 mg/kg/day) < S-MDMA (10 mg/kg/day) < Rac-MDMA (20 mg/kg/day)"},
      {"measurement": "Rank Order Physiological Measurement Effects", "setting": "CD (Sprague Dawley) rats; [3]", "value": "R-MDMA (10 mg/kg/day) < S-MDMA (5 mg/kg/day) < Rac.-MDMA (10 mg/kg/day); also recorded: R-MDMA (20 mg/kg/day) < S-MDMA (10 mg/kg/day) = Rac-MDMA (20 mg/kg/day); also recorded: S-MDMA (0 mg/kg/day) < S-MDMA (5 mg/kg/day) < S-MDMA (10 mg/kg/day); also recorded: R-MDMA (10 mg/kg/day) < S-MDMA (10 mg/kg/day) = Rac-MDMA (20 mg/kg/day)"},
      {"measurement": "Rank Order Sensorimotor Measurement Effects", "setting": "CD (Sprague Dawley) rats; [3]", "value": "S-MDMA (5 mg/kg/day) < Rac-MDMA (10 mg/kg/day) < R-MDMA (10 mg/kg/day); also recorded: S-MDMA (10 mg/kg/day) < Rac-MDMA (20 mg/kg/day) < R-MDMA (20 mg/kg/day); also recorded: S-MDMA (0 mg/kg/day) < S-MDMA (10 mg/kg/day) < S-MDMA (5 mg/kg/day)"},
      {"measurement": "thermal response times", "setting": "CD (Sprague Dawley) rats; at levels at least two-fold that of vehicle-treated groups, 1 h after last of 4 hourly SC injections", "value": "Statistically significant increases in thermal response times"}
    ]}
  ]
}
